From paper PMC2690590, “Functional recombinant MHC class II molecules and high-throughput peptide-binding assays” (Immunome Research, 2009)
Read-outs that look alike come from different tables or passages of the source. Where no end group is shown, it is not given here.

Columns and labels:
[1] = molecular target: T1, DR2a (DRA*0101/DRB5*0101) (Homo sapiens, UniProt P01903+Q30154); test: Direct LOCI peptide-MHC-II binding assay, DR2a; details: read-out: DR2a pH6 affinity
T1 construct: DRA*01011-181LZFos; DRB5*01011-190LZJunBSP; made in house

DR4 = molecular target: T2, DR4 (Homo sapiens, UniProt P01903+P01911); test: ELISA-based peptide-MHC class II binding assay, DR4
T2 construct: made in house

[2] = molecular target: T1, DR2a (DRA*0101/DRB5*0101); test: Competitive LOCI peptide-MHC-II binding assay, DR2a; details: pH 6-7.5, 48 h 18°C, read-out: DR2a Komp IC50
DR3 (DRA*0101/DRB1*0301) = molecular target: T3, DR3 (DRA*0101/DRB1*0301) (Homo sapiens, UniProt P01903+P01911, A100K/A102G/A103R/A169T/F55Y/I96L/K41T/L162R/M171V/P40S/Q125H/Q178H/Q39Y/R42S/S66N/T106N/T262R/W38E/Y61H); test: Direct LOCI peptide-MHC-II binding assay, DR3; details: read-out: DR3 affinity
T3 construct: DRA*01011-181LZFos; DRB1*03011-190LZJunBSP; made in house

[3] = molecular target: T4, DRB3*0301 (DRA*0101/DRB3*0301) (Homo sapiens, UniProt P01903+P79483, A169T/A212P/D57E/G115V/L67V/Q178H/R103Q/R40L/Y55F); test: Direct LOCI peptide-MHC-II binding assay, DRB3*0301; details: read-out: DRB3*0301 affinity
T4 construct: DRA*01011-181LZFos; DRB3*03011-190LZJunBSP; made in house

[4] = molecular target: T5, DRB1*0813 (DRA*0101/DRB1*0813) (Homo sapiens, UniProt P01903+P01911, A100R/A103L/A169T/F76Y/H45Y/I96L/K41T/L162R/M171V/P40S/Q125H/Q178H/Q39Y/Q99D/R218S/R42G/S66Y/V115G/W38E); test: Direct LOCI peptide-MHC-II binding assay, DRB1*0813; details: read-out: DRB1*0813 affinity
T5 construct: DRA*01011-181LZFos; DRB1*08131-190LZJunBSP; made in house

DR1 (DRA*0101/DRB1*0101) = DR1 (DRA*0101/DRB1*0101) (Homo sapiens, UniProt P01903+P01911, A100R/D57E/F55L/F60I/F76Y/I96L/L162R/M171V/P40L/Q125E/R42F/V115G/Y59C); test: Competitive peptide-HLA-DR1 binding assay, radioactive spun column
DR4 (DRA*0101/DRB1*0401) = molecular target: T6, DR4 (DRA*0101/DRB1*0401) (Homo sapiens, UniProt P01903+P01911, A100K/A169T/F76Y/I96L/K127E/L162R/M171V/N62H/P40V/Q125Y/R42H/S133A/S149N/S66Y/V115G/V209L/W38E); test: Direct LOCI peptide-MHC-II binding assay, DR4; details: read-out: DR4 affinity
T6 construct: DRA*01011-181LZFos; DRB1*04011-190LZJunBSP; made in house

[5] = molecular target: DP401 (DPA1*0103/DPB1*0401) (Homo sapiens, UniProt P04440+P20036); test: Direct LOCI peptide-MHC-II binding assay, DP401; details: read-out: DP401 affinity
DR2 (DR2a) = molecular target: T7, DR2 (DR2a) (Homo sapiens, UniProt P01903+Q30154); test: ELISA-based peptide-MHC class II binding assay, DR2
T7 construct: DR2a: DRA*0101_1–181/DRB5*0101_1–190; made in house

I-E^d = molecular target: T8, I-E^d (Mus musculus, UniProt P01904+P01915); test: Direct LOCI peptide-MHC-II binding assay, I-E^d; details: 48 h 18°C; read-out: I-E^D affinity
T8 construct: I-E^dA1-191LZFos; I-E^dB1-198LZJunBSP; made in house

DR1 = DR1 (Homo sapiens, UniProt P01903+P01911, A100R/D57E/F55L/F60I/F76Y/I96L/L162R/M171V/P40L/Q125E/R42F/V115G/Y59C); test: biochemical; type: binding

CSCC[C@H](NC(=O)[C@@H]1CCCN1C(=O)[C@H](CC(C)C)NC(=O)[C@H](C)NC(=O)[C@H](CCC(N)=O)NC(=O)[C@H](CCSC)NC(=O)[C@H](CC(C)C)NC(=O)[C@H](CC(C)C)NC(=O)[C@@H]1CCCN1C(=O)[C@@H](NC(=O)[C@H](C)NC(=O)[C@H](CCSC)NC(=O)[C@H](CCCNC(=N)N)NC(=O)[C@H](CCSC)NC(=O)[C@H](CCCCN)NC(=O)[C@H](CO)NC(=O)[C@@H](NC(=O)[C@@H]1CCCN1C(=O)[C@H](CCCCN)NC(=O)[C@@H]1CCCN1C(=O)[C@@H]1CCCN1C(=O)[C@H](CCCCN)NC(=O)[C@@H]1CCCN1C(=O)[C@H](CC(C)C)NC(=O)[C@@H](N)Cc1ccc(O)cc1)C(C)C)[C@@H](C)O)C(=O)O [CLIP]
Kd [1]: 1 nM | EC50 (DR4; ELISA, L243 detection, α/β 31 and 1 nM, refolding buffer pH 8, 24 h 18°C, peptide concentration in nM per legend, read-out: EC50 DR4): 9.7 nM | IC50 ([2]; competitive LOCI, 4 nM biotin-PEG-HA306–318 agonist, β chain without biotin, α/β 13/5 nM, L243, average of 2–4 measurements): 1 nM | Kd (DR3 (DRA*0101/DRB1*0301)): 1 nM | Kd [3]: 1 nM | Kd [4]: 2 nM | IC50 (DR1 (DRA*0101/DRB1*0101); competition with 3 nM 125I labelled (Y)HA306–318, 80 nM DR1 α and β chain, 24 h, spun column, some ligand depletion expected, read-out: IC50): 40 nM | Kd (DR4 (DRA*0101/DRB1*0401)): 2 nM | Kd [5]: 4 nM | EC50 (DR2 (DR2a); ELISA, L243 detection, α/β 31 and 1 nM, refolding buffer pH 8, 24 h 18°C, peptide concentration in nM per legend, read-out: EC50 DR2): 0.7 nM

YKYVKQNTLKLAT [HA306-318]
Kd ([1]; pH 6, 48 h 18°C): 10 nM | EC50 (DR4): 43.1 nM | IC50 [2]: 2 nM | Kd (DR3 (DRA*0101/DRB1*0301); pH 6-7, 48 h 18°C): 13 nM | Kd ([3]; pH 7, 48 h 18°C): 4 nM | Kd (I-E^d): 25 nM | Kd ([4]; pH 6-7.5, 48 h 18°C): 11 nM | IC50 (DR1 (DRA*0101/DRB1*0101)): 34 nM | Kd (DR4 (DRA*0101/DRB1*0401); pH 6-7.5, 48 h 18°C): 8 nM | EC50 (DR1): 2.2 nM | Kd ([5]; pH 7, 48 h 18°C): > 5000 nM | EC50 (DR2 (DR2a)): 1.2 nM
